Values of other authors in paper PMC2667333 (Molecular cell, 2009).

Test system: calcineurin (CN)
Conditions: ref Swanson et al., 1992; Yin and Ochs, 2003

Compound | effect on CN-mediated pNPP dephosphorylation
C=CC[C@@H]1/C=C(\C)C[C@H](C)C[C@H](OC)[C@H]2O[C@@](O)(C(=O)C(=O)N3CCCC[C@H]3C(=O)O[C@H](/C(C)=C/[C@@H]3CC[C@@H](O)[C@H](OC)C3)[C@H](C)[C@@H](O)CC1=O)[C@H](C)C[C@@H]2OC [FK506] | increase CN-mediated pNPP dephosphorylation
cyclosporin A [CsA] | increase CN-mediated pNPP dephosphorylation
